In brackets after ≈: the same amount, converted by molar mass.
Legend:
[1] = Caco-2 cell monolayer transport experiment; format: in vitro ADME; details: human; for Papp A→B at 90 min, 100 μmol/L: incubation up to 90 min, n = 3
Experimental: To facilitate the cells’ differentiation and formation of a confluent monolayer, Caco-2 cells were seeded at a density of 1.0 × 10^5 cells/cm^2 on a 12-well Transwell insert filter. The inserts were fed with culture medium at 2 days intervals in the first week, and then at daily intervals for the AP side and 2 days intervals for the BL side until they were used for the transport experiment 21 days after seeding. The AP and BL sides contained 0.5 mL and 1.5 mL of culture medium, respectively. […] The cell inserts were used after the resistance reached above 600 Ω∙cm^2.
On day 21, transport study was initiated by careful removal of the culture medium from AP and BL sides. Caco-2 monolayers were rinsed twice with pre-warmed HBSS and were incubated by pre-warmed HBSS for 30 min at 37 °C. PA, GA and TS were dissolved in DMSO, and diluted to the concentration of 25, 50 and 100 μmol/L with HBSS. The final DMSO concentration was less than 1%. Test compounds were added to the AP side (0.5 mL) or BL side (1.5 mL) of the inserts, while the receiving chamber contained the corresponding volume of HBSS. […] At 30, 60, 90, 120, 150 and 180 min, 0.2 mL of solutions from BL side or AP side were collected, and replaced with an equal volume of HBSS. Samples were frozen immediately and stored below −20 °C before analysis. Upon completion of all permeation experiments, TEER values were measured to ensure that cell monolayer integrity and viability had not been adversely affected by experimental conditions.
(§1) The cell survival rate (%) was calculated using the equation survival rate= A/A0 × 100, wherein A was the average absorbance value of treatment group; A0 was the average absorbance value of the blank control group. The Papp was determined in this study by HPLC quantification of the compounds in the receiver chamber after transport across the Caco-2 monolayer. The calculation was described by the equation Papp = (dQ/dt) × (1/A) × (1/C0), wherein dQ/dt was the rate of appearance of the test compound on the receiver compartment (μmol/s); C0 was the initial test compound concentration on the donor compartment (μmol/mL); and A was the surface area of Caco-2 monolayer (cm^2).
The percentage transported (%) was calculated using the equation % Transported = QB/(CS × VD) × 100, wherein QB was the amount of compounds in the receiver compartment(μmol); CS was the donor concentration of test compounds (μmol/L); VD was the volume of the donor compartment (L). The transport rate (μmol/h/cm^2) was calculated using the equation transport rate = QB/(t × A), wherein QB was the amount of compounds in the receiver compartment(μmol); t was the incubating time (h); A was the surface area of Caco-2 monolayer (cm^2).

Caco-2 cells = test: MTT assay on Caco-2 cells; format: cell-based, human; details: for Survival Rate: 4 h, n = 4
Experimental: Caco-2 cells at logarithmic growth phase were seeded onto 96-well plates and incubated at 37 °C in culture hood. The culture medium was removed after cells formed a full layer, and each 100 μL of HBSS solution (negative control group) and drug-containing HBSS solution (three phenolic acids at the concentrations of 25, 50 and 100 μmol/L, respectively) was added to each well. When the plates were cultured for 4 h, HBSS solution was completely transferred out and each 100 μL of MTT solution (0.5 mg/mL) was added to each well. MTT solution was removed carefully after 4 hours of incubation at 37 °C, and each 150 μL of DMSO was added to each well, then culture vessels were agitated on an orbital shaker for 10 min and absorbance was read on a microplate reader at 570 nm.
as §1

[2] = Caco-2 cell monolayer transport experiment; format: in vitro ADME; details: human; for Papp A→B at 90 min, 25 μmol/L / Papp B→A at 90 min, 25 μmol/L / Papp A→B at 90 min, 50 μmol/L / Papp B→A at 90 min, 50 μmol/L / Papp B→A at 90 min, 100 μmol/L / Papp A→B at 90 min / Papp B→A at 90 min: incubation up to 90 min; for Papp A→B at 90 min, 25 μmol/L / Papp B→A at 90 min, 25 μmol/L / Papp A→B at 90 min, 50 μmol/L / Papp B→A at 90 min, 50 μmol/L / Papp B→A at 90 min, 100 μmol/L: n = 3; for Papp A→B at 90 min / Papp B→A at 90 min: average of 25, 50 and 100 μmol/L; for Papp at 90 min: monitored for 90 min, read-out: bidirectional Papp level (AP to BL and BL to AP)
influenza A = system: influenza A; set-up: method as in ref [7] = [7]; 7. Wang R.F. The Constituents and Bioactivities of Jinlianhua and Pangdahai Doctoral Thesis Peking University Bejing, China 2003; details: antiviral, ref [7]; cited from earlier work
Pseudomonas aeruginosa = system: Pseudomonas aeruginosa; set-up: method as in PMID 11849843; details: ref [4],[5]; cited from earlier work
Staphylococcus aureus = system: Staphylococcus aureus; set-up: method as in PMID 11849843; details: ref [4],[5]; cited from earlier work
Para 3 = system: Para 3; set-up: method as in ref [6] = [6]; 6. Li Q.F. Feng S.Q. Li Y.L. Cen Y.Z. Yang Y.T. Wang L.Y. Study on the antibacterial and antiviral activity compositions of Trollius chinensis Bunge J. Zhejiang Univ. (Sci. Ed.) 2004 31 412 415; details: antiviral, ref [6]; cited from earlier work
Streptococcus pneumonia = system: Streptococcus pneumonia; set-up: method as in ref [7] = [7]; 7. Wang R.F. The Constituents and Bioactivities of Jinlianhua and Pangdahai Doctoral Thesis Peking University Bejing, China 2003; details: ref [7]; cited from earlier work

Row | SMILES | Papp A→B at 90 min, 100 μmol/L [1] | Survival Rate (Caco-2 cells; 25 μmol/L) | Survival Rate (Caco-2 cells; 50 μmol/L) | Survival Rate (Caco-2 cells; 100 μmol/L) | Papp A→B at 90 min, 25 μmol/L [2] | Papp B→A at 90 min, 25 μmol/L [2] | Papp A→B at 90 min, 50 μmol/L [2] | Papp B→A at 90 min, 50 μmol/L [2] | Papp B→A at 90 min, 100 μmol/L [2] | Papp A→B at 90 min [2] | Papp B→A at 90 min [2] | Papp at 90 min [2] | IC50 (influenza A) | MIC (Pseudomonas aeruginosa) | MIC (Staphylococcus aureus) | IC50 (Para 3) | Survival rate of Caco-2 cells (Caco-2 cells; at different concentrations (25, 50, 100 μmol/L)) | MIC (Streptococcus pneumonia) | Papp at 180 min ([1]; standard markers added to the AP side, model validation, read-out: Papp of reference controls)
1 | COc1cc(C(=O)O)cc2c1OC(C)(C)CC2 [GA, 8-methoxy-2,2-dimethylchroman-6-carboxylic acid] | 17 ± 1.2 ×10⁻⁶ cm/s | 107.1 ± 5.7% | 118.9 ± 13.7% | 123.6 ± 6.2% | 21.4 ± 2 ×10⁻⁶ cm/s | 22.1 ± 0.8 ×10⁻⁶ cm/s | 15.9 ± 0.2 ×10⁻⁶ cm/s | 20 ± 0.7 ×10⁻⁶ cm/s | 19.4 ± 1 ×10⁻⁶ cm/s | 18.1 ± 1.1 ×10⁻⁶ cm/s | 20.5 ± 0.8 ×10⁻⁶ cm/s | ~10 ×10⁻⁶ cm/s | 42.1 µg/mL (≈ 178 µM) |  |  |  |  |  | 
2 | COc1cc(C(=O)O)cc(CC=C(C)C)c1O [PA, 4-hydroxy-3-methoxy-5-(3-methylbut-2-en-1-yl)benzoic acid] | 29.6 ± 1.1 ×10⁻⁶ cm/s | 118.8 ± 11.6% | 110.5 ± 3.8% | 124.5 ± 2.2% | 31.7 ± 0.4 ×10⁻⁶ cm/s | 25.4 ± 2.2 ×10⁻⁶ cm/s | 28 ± 1.3 ×10⁻⁶ cm/s | 25.6 ± 1.9 ×10⁻⁶ cm/s | 25.9 ± 1.4 ×10⁻⁶ cm/s | 29.8 ± 1.3 ×10⁻⁶ cm/s | 25.6 ± 1.8 ×10⁻⁶ cm/s | ~10 ×10⁻⁶ cm/s |  | 16 µg/mL (≈ 67.7 µM) | 200 µg/mL (≈ 846 µM) | 184.2 µg/mL (≈ 780 µM) |  |  | 
3 | CC(=O)O[C@H]1C(=O)[C@@]2(C)[C@H]([C@H](OC(=O)c3ccccc3)[C@]3(O)C[C@H](OC(=O)[C@H](O)[C@@H](NC(=O)c4ccccc4)c4ccccc4)C(C)=C1C3(C)C)[C@]1(OC(C)=O)CO[C@@H]1C[C@@H]2O [Paclitaxel, reference compound] |  | 67.3 ± 8.2% | 45.5 ± 6.7% | 37.4 ± 3.5% |  |  |  |  |  |  |  |  |  |  |  |  | below 70% |  | 
4 | COc1cc(C(=O)O)cc(CC=C(C)C)c1O[C@@H]1O[C@H](CO)[C@@H](O)[C@H](O)[C@H]1O [TS, 3-methoxy-5-(3-methylbut-2-en-1-yl)-4-(((2S,3R,4S,5S,6R)-3,4,5-trihydroxy-6-(hydroxymethyl)tetrahydro-2H-pyran-2-yl)oxy)benzoic acid] | 7.7 ± 0.9 ×10⁻⁶ cm/s | 98.9 ± 4.3% | 107.3 ± 7.0% | 118.2 ± 8.1% | 8.6 ± 1.6 ×10⁻⁶ cm/s | 8.6 ± 0.4 ×10⁻⁶ cm/s | 10.6 ± 0.3 ×10⁻⁶ cm/s | 10.8 ± 0.6 ×10⁻⁶ cm/s | 8 ± 0.3 ×10⁻⁶ cm/s | 8.9 ± 0.9 ×10⁻⁶ cm/s | 9.1 ± 0.4 ×10⁻⁶ cm/s | ~10 ×10⁻⁶ cm/s |  |  |  |  |  | 128 µg/mL (≈ 321 µM) | 
5 | CC(C)NCC(O)COc1cccc2ccccc12 (stereo not shown) [propranolol, reference compound] |  |  |  |  |  |  |  |  |  |  |  |  |  |  |  |  |  |  | 12.4 ×10⁻⁶ cm/s
